How the values were obtained:
[1] = tested on: MCF7; test: Cytotoxicity against human MCF7 cells assessed as reduction in cell growth incubated for 24 hrs by MTT assay; type: functional, cell-based; conditions: MCF7, 24 h
[2] = tested on: A549; test: Cytotoxicity against human A549 cells assessed as reduction in cell growth incubated for 24 hrs by MTT assay; type: functional, cell-based; conditions: A549, 24 h
[3] = tested on: MDA-MB-231; test: Cytotoxicity against human MDA-MB-231 cells assessed as reduction in cell growth incubated for 24 hrs by MTT assay; type: functional, cell-based; conditions: MDA-MB-231, 24 h
[4] = tested on: HCT-116; test: Antiproliferative activity against human HCT-116 cells assessed as reduction in cell growth incubated for 72 hrs by SRB assay; type: functional, cell-based; conditions: HCT-116, 72 h
[5] = tested on: PC-3; test: Antiproliferative activity against human PC-3 cells assessed as reduction in cell growth incubated for 72 hrs by SRB assay; type: functional, cell-based; conditions: PC-3, 72 h
[6] = tested on: MDA-MB-231; test: Antiproliferative activity against human MDA-MB-231 cells assessed as reduction in cell growth incubated for 72 hrs by SRB assay; type: functional, cell-based; conditions: MDA-MB-231, 72 h
[7] = tested on: SK-HEP1; test: Antiproliferative activity against human SK-HEP1 cells assessed as reduction in cell growth incubated for 72 hrs by SRB assay; type: functional, cell-based; conditions: SK-HEP1, 72 h
[8] = tested on: SNU-638; test: Antiproliferative activity against human SNU-638 cells assessed as reduction in cell growth incubated for 72 hrs by SRB assay; type: functional, cell-based; conditions: SNU-638, 72 h
[9] = tested on: A549; test: Antiproliferative activity against human A549 cells assessed as reduction in cell growth incubated for 72 hrs by SRB assay; type: functional, cell-based; conditions: A549, 72 h
[10] = tested on: SARS-CoV-2; test: Antiviral activity against SARS-CoV-2 infected in African green monkey Vero E6 cells assessed as inhibition of viral replication by qRT-PCR analysis; type: functional, organism-based; conditions: Severe acute respiratory syndrome coronavirus 2, Vero C1008
[11] = tested on: SK-HEP1; test: Cytotoxicity against human SK-HEP1 cells; type: functional, cell-based
[12] = tested on: A549; test: Cytotoxicity against human A549 cells; type: functional, cell-based
[13] = tested on: HCT-116; test: Cytotoxicity against human HCT-116 cells; type: functional, cell-based
[14] = tested on: Ishikawa; test: Cytotoxicity against human Ishikawa cells; type: functional, cell-based
[15] = tested on: HeLa; test: Antiproliferative activity against human HeLa cells assessed as reduction in cell viability incubated for 24 hrs by MTT assay; type: functional, cell-based
[16] = tested on: L929; test: Cytotoxicity against mouse L929 cells assessed as reduction in cell viability; type: functional, cell-based
[17] = tested on: HeLa; test: Cytotoxicity against human HeLa cells; type: functional, cell-based
[18] = tested on: PANC-1; test: Antiproliferative activity against human PANC-1 cells assessed as reduction in cell viability incubated for 24 hrs by MTT assay; type: functional, cell-based; conditions: PANC-1, 24 h
[19] = target: PRMT5/MEP50 complex (Homo sapiens, UniProt O14744); test: Inhibition of PRMT5/MEP50 (unknown origin); type: cell-based, HCC4006
[20] = tested on: MCF7; test: Antiproliferative activity against human MCF7 cells assessed as cell growth inhibition incubated for 48 hrs by MTT assay; type: functional, cell-based; conditions: MCF7, 48 h
[21] = tested on: Z-138; test: Antiproliferative activity against human Z138 cells assessed as cell growth inhibition incubated for 48 hrs by MTT assay; type: functional, cell-based; conditions: Z-138, 48 h
[22] = tested on: PC-3; test: Antiproliferative activity against human PC-3 cells assessed as reduction in cell growth incubated for 24 hrs by MTT assay; type: functional, cell-based; conditions: PC-3, 24 h
[23] = tested on: IMR-32; test: Cytotoxicity against human IMR-32 cells assessed as reduction in cell viability incubated for 48 hrs by MTT assay; type: functional, cell-based; conditions: IMR-32, 48 h
[24] = tested on: PC-3; test: cells; conditions: Homo sapiens, PC-3, 48 h
[25] = tested on: MCF7; test: cells; conditions: Homo sapiens, MCF7, 48 h
[26] = tested on: HCT-116; test: Cytotoxicity against human HCT-116 cells assessed as reduction in cell growth incubated for 72 hrs by MTT assay; type: functional, cell-based; conditions: HCT-116, 72 h
[27] = tested on: U-937; test: Cytotoxicity against human U-937 cells assessed as reduction in cell growth incubated for 72 hrs by MTT assay; type: functional, cell-based; conditions: U-937, 72 h
[28] = Inhibition of Hepatitis C virus NS5B polymerase; set-up: species or system Hepacivirus hominis
[29] = tested on: A549; test: Cytotoxicity against human A549 cells assessed as reduction in cell viability measured for 48 hrs by MTT assay; type: functional
[30] = tested on: MCF7; test: Cytotoxicity against human MCF7 cells assessed as reduction in cell viability measured for 48 hrs by MTT assay; type: functional
[31] = tested on: MDA-MB-231; test: Anticancer activity against human MDA-MB-231 cells; type: functional, cell-based
[32] = tested on: PANC-1; test: Cytotoxicity against human PANC-1 cells; type: functional
[33] = tested on: U-87 MG; test: Cytotoxicity against human U-87 MG cells; type: functional, U-87MG ATCC

PRMT5/MEP50 complex, sequence (O14744 whole entry): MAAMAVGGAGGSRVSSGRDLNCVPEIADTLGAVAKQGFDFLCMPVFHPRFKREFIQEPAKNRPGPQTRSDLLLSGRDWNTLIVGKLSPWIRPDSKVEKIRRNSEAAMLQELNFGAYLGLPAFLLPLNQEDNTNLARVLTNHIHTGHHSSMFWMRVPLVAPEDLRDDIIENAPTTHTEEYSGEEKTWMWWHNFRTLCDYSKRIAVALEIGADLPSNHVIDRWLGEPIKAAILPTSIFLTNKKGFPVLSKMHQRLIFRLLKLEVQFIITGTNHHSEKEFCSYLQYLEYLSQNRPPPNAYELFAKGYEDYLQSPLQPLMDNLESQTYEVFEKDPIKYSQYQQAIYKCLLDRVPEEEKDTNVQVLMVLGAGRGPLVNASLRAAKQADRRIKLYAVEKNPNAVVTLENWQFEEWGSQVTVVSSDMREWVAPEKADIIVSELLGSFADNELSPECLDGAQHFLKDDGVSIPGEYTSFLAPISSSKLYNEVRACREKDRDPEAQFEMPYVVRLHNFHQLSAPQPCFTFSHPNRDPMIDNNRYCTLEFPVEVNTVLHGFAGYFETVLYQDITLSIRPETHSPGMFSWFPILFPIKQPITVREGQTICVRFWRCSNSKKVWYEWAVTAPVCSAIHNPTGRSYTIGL
PRMT5/MEP50 complex, sequence (Q9BQA1 whole entry, further chain): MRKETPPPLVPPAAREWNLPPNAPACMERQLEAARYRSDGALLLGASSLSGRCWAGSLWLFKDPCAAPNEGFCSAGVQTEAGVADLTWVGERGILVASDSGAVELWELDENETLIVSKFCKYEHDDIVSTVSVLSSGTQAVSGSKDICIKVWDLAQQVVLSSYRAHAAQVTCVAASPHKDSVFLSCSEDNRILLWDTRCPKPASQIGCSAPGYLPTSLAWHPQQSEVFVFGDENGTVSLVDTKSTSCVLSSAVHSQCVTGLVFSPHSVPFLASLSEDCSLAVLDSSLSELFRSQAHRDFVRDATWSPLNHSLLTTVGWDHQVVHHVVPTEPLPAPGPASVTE

Structure (SMILES): CC(=O)Nc1ccn(-c2nnc(Cn3cnc4c3c(=O)n(C)c(=O)n4C)o2)c(=O)n1
- IC50 [1]: 25200 nM
- IC50 [2]: 20400 nM
- IC50 [3]: 24700 nM

Structure (SMILES): C#Cc1cn([C@@H]2S[C@H](CO)[C@@H](O)[C@H]2O)c2ncnc(N)c12
- IC50 [4]: 30 nM
- IC50 [5]: 4 nM
- IC50 [6]: 50 nM
- IC50 [7]: 50 nM
- IC50 [8]: 30 nM
- IC50 [9]: 60 nM

Structure (SMILES): [2H]C([2H])(O)[C@H]1O[C@@](C#N)(c2ccc3c(N)ncnn23)[C@H](O)[C@@H]1O
- EC50 [10]: 250 nM

Structure (SMILES): Nc1ncnc2c1c1sc3c4sccc4sc3c1n2[C@H]1C[C@@H](O)[C@@H](CO)O1
- IC50 [11]: 480 nM
- IC50 [12]: 14200 nM
- IC50 [13]: 1910 nM

Structure (SMILES): O=c1[nH]c(=O)n(C[C@H](O)CO)cc1C#Cc1cc2ccccc2c2ccccc12
- IC50 [14]: 50200 nM
- IC50 [15]: 39300 nM
- IC50 [16]: 38400 nM
- IC50 [17]: 39300 nM
- IC50 [18]: 39300 nM

Structure (SMILES): Cc1ncnc2c1ccn2[C@@H]1O[C@@H]2[C@H](Cc3ccc4cc(Br)c(N)nc4c3)OC[C@]2(O)[C@H]1O
- IC50 [19]: 0.8 nM
- IC50 [20]: 3 nM
- IC50 [21]: 15 nM

Structure (SMILES): C[C@H](CCC(=O)OCc1cn(C[C@H]2O[C@@H](n3ccc(=O)[nH]c3=O)[C@@H]3OC(C)(C)O[C@@H]32)nn1)[C@H]1CC[C@H]2[C@@H]3[C@H](O)C[C@@H]4C[C@H](O)CC[C@]4(C)[C@H]3C[C@H](O)[C@]12C
- IC50 [22]: 17900 nM
- IC50 [23]: 16800 nM
- IC50 [15]: 96000 nM
- IC50 [24]: 17900 nM
- IC50 [25]: 8080 nM

Structure (SMILES): Nc1ncnc2c1ncn2Cc1ccc(-c2cn(CCCCCCC(=O)NO)nn2)cc1
- IC50 [26]: 17400 nM
- IC50 [27]: 1320 nM

Structure (SMILES): Nc1ncnc2c1ncn2[C@@H]1OC2(CC[C@H]2O)[C@@H](O)[C@H]1O (stereo not given in full)
- IC50 [19]: 900 nM

Structure (SMILES): C#C[C@@]1(N)[C@H](O)[C@@H](CO)O[C@H]1n1cnc2c(=O)[nH]c(N)nc21
- IC50 [28]: 1100 nM

Structure (SMILES): CCCCCCCCCCCCc1ccc(-n2cc(CNCCO)nn2)cc1
- IC50 [22]: 11000 nM
- IC50 [18]: 4900 nM

Structure (SMILES): C=C(N)NCCOc1cccc2c1Nc1nc(=O)n([C@@H]3O[C@H](CO)[C@@H](O)[C@H]3O)cc1O2
- CC50 [29]: 800 nM
- CC50 [30]: 4300 nM

Structure (SMILES): [N-]=[N+]=N[C@@H]1[C@@H](O)[C@H](n2c(-c3c4ccccc4cc4ccccc34)nc3ccccc32)O[C@@H]1CO
- IC50 [31]: 420 nM

Structure (SMILES): COc1cccc2c1C(=O)c1c(O)c3c(c(O)c1C2=O)C[C@@](O)(C(=O)CO)C[C@@H]3O[C@H]1C[C@H](N)[C@H](O)[C@H](C)O1 [DOXORUBICIN]
- CC50 [29]: 30 nM
- IC50 [23]: 43 nM
- CC50 [30]: 900 nM
- IC50 [24]: 336 nM
- IC50 [25]: 440 nM

Structure (SMILES): Nc1ccn([C@@H]2O[C@H](CO)[C@@H](O)C2(F)F)c(=O)n1 [GEMCITABINE]
- IC50 [14]: 20300 nM
- IC50 [16]: 230 nM
- IC50 [17]: 240 nM

Structure (SMILES): Nc1ccn([C@@H]2S[C@H](CO)[C@@H](O)[C@@H]2O)c(=O)n1 [THIARABINE]
- CC50 [32]: 590 nM
- CC50 [33]: 590 nM

From ChEMBL document CHEMBL5550081, “Is it still worth renewing nucleoside anticancer drugs nowadays?” (Eur J Med Chem, 2024)
